Assay results reported in patent US6962976B2, “Human TREK2, a stretch- and arachidonic acid-sensitive K+ channel activated by inhalational anesthetics and niluzole” (Centre National de la Recherche Scientifique-CNRS, priority 2000, dated 2005).
Each block holds one compound with its values, some of them ahead of it.

Key:
[1] = test system: TREK2 co-expressed with 5HT4sR
Experimental: (§1) The voltage-clamp protocol consists of a voltage-ramp of 800 ms duration starting from a holding potential of −80 mV applied every 10 s. The current was monitored at +100 mV.
(§2) COS cells were seeded at a density of 20,000 cells per 35 mm dish, 24 h prior transfection. Cells were transiently transfected by the classical DEAE-dextran method with 0.2 μg of pIRES-CD8. TREK2 with or without mGluR1, mGluR2 or 5HT4sR expression vectors (a generous gift of Drs J P Pin and A Dumuis, Montpellier, France).
(§3) Transfected cells were visualized 48 h after transfection using the anti-CD8 antibody-coated beads method.
(§4) TREK2 was co-expressed with 5HT4sR, a Gs-coupled receptor. […] A third type of G-protein coupled receptor was co-expressed with TREK2. This receptor is the Gq-coupled mGluR1 receptor. […] The Gq-protein is commonly associated with activation of phospholipase C and the consequent production of diacylglycerol (DAG) and inositol 1,4,5-triphosphate (IP 3). Ultimately, DAG leads to activation of PKC and IP 3 to an increase of intracellular Ca^2+.

TREK2 = molecular target: T1, TREK2 (Homo sapiens, UniProt P57789); assay: Whole-cell patch-clamp of TREK2 currents in transfected COS cells; assay type: cell-based; settings: for effect on TREK2 current in COS cells transfected with only TREK2: no receptor co-expressed; for activation of TREK2 by fatty acids and lysophospholipids (in words): whole-cell current
T1 construct: expressed in transfected cells; host or cells: COS cells
T1 sequence (P57789 1-538): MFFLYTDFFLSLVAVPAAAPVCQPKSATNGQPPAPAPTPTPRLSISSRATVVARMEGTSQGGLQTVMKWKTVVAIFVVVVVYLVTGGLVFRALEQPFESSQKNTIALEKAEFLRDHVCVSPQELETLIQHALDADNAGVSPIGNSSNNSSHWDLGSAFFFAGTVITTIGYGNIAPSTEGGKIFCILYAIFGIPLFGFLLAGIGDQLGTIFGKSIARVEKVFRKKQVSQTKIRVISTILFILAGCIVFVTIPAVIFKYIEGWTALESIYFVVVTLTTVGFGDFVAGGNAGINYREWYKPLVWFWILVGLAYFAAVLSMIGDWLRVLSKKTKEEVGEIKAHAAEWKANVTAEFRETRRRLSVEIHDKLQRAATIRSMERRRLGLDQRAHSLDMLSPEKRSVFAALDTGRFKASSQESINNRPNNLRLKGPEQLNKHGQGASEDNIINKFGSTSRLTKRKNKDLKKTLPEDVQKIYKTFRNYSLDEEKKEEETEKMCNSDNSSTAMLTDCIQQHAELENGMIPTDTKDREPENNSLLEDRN
Experimental: For inside-out patch recordings, pipettes were filled with the EXT solution and the bathing solution was the INT solution buffered either at pH 7.3 or at pH 5.6 in the internal acidosis experiments. Cells were continuously superfused with a microperfusion system during the experiment (0.2 ml per min) done at room temperature. A RK400 patch-clamp amplifier was used for whole-cell and single-channel recordings (Bio-Logic, Claix, France). Single-channel data were low-pass filtered at 5 KHz and digitized at 50 KHz using a DAT recorder (Bio-Logic, Claix, France). pClamp software was used to analyze whole-cell data and Biopatch software (Bio-Logic) to analyze single-channel data.
Concentrations of volatile anesthetics were adjusted from saturated solutions (isoflurane, 15.3 mM; halothane, 17.5 mM and chloroform, 66.6 mM) in saline at room temperature (16). Mechanical stimulation was applied through an open loop pressure generating system and monitored at the level of the patch pipette by a calibrated pressure sensor (17).

TREK1 = molecular target: T2, TREK1 (Homo sapiens, UniProt O95069); settings: cited from earlier work
T2 sequence (O95069 1-426): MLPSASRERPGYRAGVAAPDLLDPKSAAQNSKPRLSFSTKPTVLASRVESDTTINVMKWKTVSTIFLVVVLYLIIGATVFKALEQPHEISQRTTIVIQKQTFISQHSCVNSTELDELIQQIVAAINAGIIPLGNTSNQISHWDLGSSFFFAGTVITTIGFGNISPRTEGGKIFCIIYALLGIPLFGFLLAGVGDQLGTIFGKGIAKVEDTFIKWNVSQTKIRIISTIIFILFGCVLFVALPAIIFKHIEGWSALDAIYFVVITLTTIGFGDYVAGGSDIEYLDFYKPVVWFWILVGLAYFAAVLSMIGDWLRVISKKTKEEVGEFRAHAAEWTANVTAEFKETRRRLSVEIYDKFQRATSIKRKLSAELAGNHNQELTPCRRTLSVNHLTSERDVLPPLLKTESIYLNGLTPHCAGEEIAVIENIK

[2] = test system: TREK2 co-expressed with mGluR2; assay: Whole-cell TREK2 current, TREK2 co-expressed with Gi-coupled mGluR2 in COS cells; assay type: cell-based, human
Experimental: as §1, §2, §3, §4

TRAAK = molecular target: T3, TRAAK (Homo sapiens, UniProt Q9NYG8); settings: cited from earlier work
T3 sequence (Q9NYG8 1-393): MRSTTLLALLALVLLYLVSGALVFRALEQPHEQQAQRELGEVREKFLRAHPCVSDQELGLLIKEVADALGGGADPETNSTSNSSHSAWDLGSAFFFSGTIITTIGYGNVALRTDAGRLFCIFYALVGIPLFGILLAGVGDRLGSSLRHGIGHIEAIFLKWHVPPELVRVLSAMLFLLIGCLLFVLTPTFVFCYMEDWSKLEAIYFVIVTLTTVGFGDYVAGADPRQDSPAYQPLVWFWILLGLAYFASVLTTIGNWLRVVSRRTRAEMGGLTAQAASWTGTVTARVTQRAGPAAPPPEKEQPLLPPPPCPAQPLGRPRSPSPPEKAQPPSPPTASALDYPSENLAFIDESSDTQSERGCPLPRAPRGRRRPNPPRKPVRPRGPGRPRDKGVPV

[3] = 1 mM, 0 mV (voltage given for halothane only)

Compound: NCCc1c[nH]c2ccc(O)cc12 [5-HT, 5-hydroxytryptamine]
effect on TREK2 activity after receptor activation [1]: decrease of TREK2 activity
effect on TREK2 current in COS cells transfected with only TREK2 (TREK2): No effect

Compound: [Ba+2] [Ba^2+]
sensitivity of TREK2 currents (TREK2; 1 mM): insensitive

inhibition of TREK2 activity (TREK2; 500 μM, at 0 mV, n=8): 50±5%
Compound: Nc1ncnc2c1nc(Sc1ccc(Cl)cc1)n2[C@@H]1O[C@@H]2COP(=O)(O)O[C@H]2[C@H]1O [CPT-cAMP]

Compound: [Ca+2] [Ca^2+]
inhibition of TREK2 (in words) (TREK2; 1 μM in the recording pipette): nor the addition of Ca^2+ in the recording pipette (1 μM) were able to induce an inhibition

Compound: CCCCCCCCCCCCCC(=O)O[C@@H]1[C@@H](C)[C@@]2(O)[C@@H](C=C(CO)C[C@]3(O)C(=O)C(C)=C[C@@H]23)[C@@H]2C(C)(C)[C@]12OC(C)=O [PMA]
inhibition of TREK2 (in words) (TREK2; 100 nM): neither the application of the PKC-activator PMA (100 nM) nor the addition of Ca^2+ in the recording pipette (1 μM) were able to induce an inhibition

inhibition at 100 µM (TREK2; COS, 100 μM): 50%
Compound: C=C[C@H]1C[N@@]2CC[C@H]1C[C@@H]2[C@@H](O)c1ccnc2ccc(OC)cc12 [Quinidine]

fold increase of TREK2 current (TREK2; 10 μM, at 0 mV): 8.4±1.9 fold increase
Compound: CCCCC/C=C\C/C=C\C/C=C\C/C=C\CCCC(=O)O [arachidonic acid]

Compound: ClC(Cl)Cl [chloroform]
fold increase of TREK2 current (TREK2; [3]): 1.8±0.1 fold increase
relative efficiency of anesthetics on TREK1 (TREK1; 1 mM): more effective than halothane and isoflurane

Compound: N[C@@H](CCC(=O)O)C(=O)O [glutamate]
effect on TREK2 activity after receptor activation [2]: stimulation of TREK2 activity
time to reverse the TREK2 increase after washing [2]: more than 10 minutes
effect on TREK2 current in COS cells transfected with only TREK2 (TREK2): No effect

fold increase of TREK2 current (TREK2; 0.25 mM, at +100 mV, n=10): 1.4±0.1 fold increase
fold increase of TREK2 current (TREK2; 0.5 mM, at +100 mV, n=10): 2.6±0.3 fold increase
fold increase of TREK2 current (TREK2; [3]): 2.3±0.3 fold increase
Compound: FC(F)(F)C(Cl)Br (centres unmarked) [halothane]

fold increase of TREK2 current (TREK2; [3]): 1.9±0.1 fold increase
Compound: FC(F)OC(Cl)C(F)(F)F (centres unmarked) [isoflurane]

activation of TREK2 by fatty acids and lysophospholipids (in words) (TREK2): activated
Compound: CCCCC/C=C\C/C=C\CCCCCCCC(=O)O [linoleic acid]

activation of TREK2 by fatty acids and lysophospholipids (in words) (TREK2): not
Compound: CCCCCCCCCCCCCCCC(=O)O [palmitic acid]

effect on TREK2 current (in words) (TREK2; current monitored at +100 mV): activated
time course of TREK2 activation (in words) (TREK2; followed by a decrease of the activity corresponding to an inhibition): transient
Compound: Nc1nc2ccc(OC(F)(F)F)cc2s1 [riluzole]
activation of TRAAK (in words) (TRAAK): permanently activated
activation of TREK1 (in words) (TREK1): transiently activated

Compound: CC[N+](CC)(CC)CC [tetraethylammonium]
sensitivity of TREK2 currents (TREK2; 10 mM): insensitive

activation of TREK2 by fatty acids and lysophospholipids (in words) (TREK2): activated
Compound: lysophosphatidylcholine

fold increase of TREK2 current (TREK2; 10 μM, at 0 mV): 5.1±0.6 fold increase
Compound: lysophosphatidylinositol
